Key:
[1] = tested on: sAPPβ release in SH-SY5Y cells; test: sAPPβ release assay; format: cell-based; conditions: 17 h incubation
Method: SH-SY5Y cells were cultured in DMEM/F-12 with Glutamax, 10% FCS and 1% non-essential amino acids and cryopreserved and stored at −140° C. at a concentration of 7.5-9.5×10^6 cells per vial. Thaw cells and seed at a conc. of around 10000 cells/well in DMEM/F-12 with Glutamax, 10% FCS and 1% non-essential amino acids to a 384-well tissue culture treated plate, […] cell susp/well. The cell plates were then incubated for 7-24 h at 37° C., 5% CO2. The cell medium was removed, followed by addition of 30 μL compound diluted in DMEM/F-12 with Glutamax, 10% FCS, 1% non-essential amino acids and 1% PeSt to a final conc. of 1% DMSO. The compounds were incubated with the cells for 17 h (overnight) at 37° C., 5% CO2. Meso Scale Discovery (MSD) plates were used for the detection of sAPPβ release. MSD sAPPβ plates were blocked in 1% BSA in Tris wash buffer (40 μL/well) for 1 h on shake at r.t. and washed 1 time in Tris wash buffer (40 μL/well). 20 μL of medium was transferred to the pre-blocked and washed MSD sAPPβ microplates, and the cell plates were further used in an ATP assay to measure cytotoxicity. The MSD plates were incubated with shaking at r.t. for 2 h and the media discarded. 10 μL detection antibody was added (1 nM) per well followed by incubation with shaking at r.t. for 2 h and then discarded. 40 μL Read Buffer was added per well and the plates were read in a SECTOR Imager.

[2] = biological target: T1, human β-Secretase (sBACE-Fc, soluble part AA 1-AA 460) (Homo sapiens (Human), UniProt P56817); test: TR-FRET assay; format: biochemical; conditions: standard TR-FRET assay (values without footnote a)
Method: The β-secretase enzyme used in the TR-FRET is prepared as follows:
(§1) The enzyme (truncated form) was diluted to 6 μg/mL (stock 1.3 mg/mL) and the TruPoint BACE1 Substrate to 200 nM (stock 120 μM) in reaction buffer (NaAcetate, chaps, triton x-100, EDTA pH4.5). Enzyme and compound in dimethylsulphoxide (final DMSO concentration 5%) was mixed and pre-incubated for 10 minutes at RT. Substrate was then added and the reaction was incubated for 15 minutes at RT. The reaction was stopped with the addition of 0.35 vol Stop solution (NaAcetate, pH 9). The fluorescence of the product was measured on a Victor II plate reader with excitation wavelengths of 340-485 nm and emission wavelengths of 590-615 nm. […] The dimethylsulphoxide control, instead of test compound, defined the 100% activity level and 0% activity was defined by wells lacking enzyme (replaced with reaction buffer) or by a saturating dose of a known inhibitor, 2-amino-6-[3-(3-methoxyphenyl)phenyl]-3,6-dimethyl-5H-pyrimidin-4-one.

[3] = biological target: T1, human β-Secretase (sBACE-Fc, soluble part AA 1-AA 460); test: Diluted TR-FRET assay; format: biochemical
Method: as §1, with “The enzyme (truncated form) was diluted to 6 μg/mL (stock 1.3 mg/mL) and the TruPoint BACE1 Substrate to 200 nM (stock 120 μM) in reaction buffer (NaAcetate, chaps, triton x-100, EDTA pH4.5).” left out, “Substrate was then added and the reaction was incubated for 15 minutes at RT.” left out

[4] = IC50 from the diluted FRET assay (footnote a): 50 times less enzyme, 6.5 h reaction time

T1 sequence (P56817 22-460): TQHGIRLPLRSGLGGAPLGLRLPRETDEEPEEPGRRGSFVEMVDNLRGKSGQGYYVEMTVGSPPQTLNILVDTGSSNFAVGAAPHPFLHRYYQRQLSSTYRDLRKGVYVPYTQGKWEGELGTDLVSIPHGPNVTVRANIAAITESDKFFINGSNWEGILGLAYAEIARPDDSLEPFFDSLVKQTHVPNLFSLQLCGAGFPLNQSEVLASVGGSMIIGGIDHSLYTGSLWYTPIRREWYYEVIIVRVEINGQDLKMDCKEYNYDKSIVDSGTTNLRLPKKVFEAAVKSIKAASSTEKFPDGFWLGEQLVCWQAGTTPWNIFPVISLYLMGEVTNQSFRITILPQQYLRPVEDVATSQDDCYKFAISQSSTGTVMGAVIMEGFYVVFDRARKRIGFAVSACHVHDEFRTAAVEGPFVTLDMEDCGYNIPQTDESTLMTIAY

| SMILES | IC50 ([1]; Homo sapiens) [nM] | IC50 [2] [nM] | IC50 [1] [nM] | also measured |
| --- | --- | --- | --- | --- |
| CO[C@H]1CC[C@]2(CC1)Cc1ccc(C#CC(C)C)cc1C21N=C(C)C(N)=N1 (mixture of isomers) [Example 8, (1r,4r)-4-Methoxy-5″-methyl-6′-(3-methylbut-1-yn-1-yl)-3′H-dispiro[cyclohexane-1,2′-indene-1′,2″-imidazol]-4″-amine] | 1.6 |  |  |  |
| CC1=NC2(N=C1N)c1cc(Br)ccc1C[C@]21CC[C@@H](OC(C)C)CC1 (stereo partly drawn) [Example 16, (1r,4r)-6′-Bromo-5″-methyl-4-(propan-2-yloxy)-3′H-dispiro[cyclohexane-1,2′-indene-1′,2″-imidazol]-4″-amine] |  | 3700 |  |  |
| CC1=N[C@@]2(N=C1N)c1cc(OCCCF)ccc1C[C@]21CC[C@@H](OC(F)F)CC1 (single isomer, unassigned; isomer 2) [13, isomer 2] |  | 2900 |  |  |
| CO[C@H]1CC[C@]2(CC1)Cc1ccc(O)cc1[C@@]21N=C(C)C(N)=N1 [Example 19, (1r,1′R,4R)-4″-Amino-4-methoxy-5″-methyl-3′H-dispiro[cyclohexane-1,2′-indene-1′,2″-imidazol]-6′-ol] |  | 1300 |  |  |
| CC1=N[C@@]2(N=C1N)c1cc(Br)ccc1C[C@]21CC[C@@H](O)CC1 (single isomer, unassigned; isomer 1) [5, isomer 1] |  | 270 | 96 |  |
| CC1=NC2(N=C1N)c1cc(OCCCF)ccc1C[C@]21CC[C@@H](OC(C)C)CC1 (stereo partly drawn) [Example 17, (1r,4r)-6′-(3-Fluoropropoxy)-5″-methyl-4-(propan-2-yloxy)-3′H-dispiro[cyclohexane-1,2′-indene-1′,2″-imidazol]-4″-amine] |  | 250 |  |  |
| CO[C@H]1CC[C@]2(CC1)Cc1ccc(C#CC3CCC3)cc1[C@]21N=C(C)C(N)=N1 (single isomer, unassigned; isomer 1) [7, isomer 1] |  |  | 2 |  |
| CC1=N[C@]2(N=C1N)c1cc(OCCCF)ccc1C[C@]21CC[C@@H](OC(F)F)CC1 (single isomer, unassigned; isomer 1) [13, isomer 1] |  |  | 1.6 | IC50 [3, 4]: 3 nM |
| CO[C@H]1CC[C@]2(CC1)Cc1ccc(C#CC(C)C)cc1[C@]21N=C(C)C(N)=N1 (single isomer, unassigned; isomer 1) [9, isomer 1] |  |  | 0.7 |  |
| CC1=N[C@@]2(N=C1N)c1cc(-c3cc(Cl)cc(C#N)c3)ccc1C[C@]21CC[C@@H](O)CC1 (single isomer, unassigned; isomer 2) [15, isomer 2] |  | 780 | 216 |  |
| CO[C@H]1CC[C@]2(CC1)Cc1ccc(OCCC(F)(F)F)cc1C21N=C(C)C(N)=N1 (stereo partly drawn) [Example 10, (1r,4r)-4-Methoxy-5″-methyl-6′-(3,3,3-trifluoropropoxy)-3′H-dispiro[cyclohexane-1,2′-indene-1′,2″-imidazol]-4″-amine] | 0.6 |  |  |  |
| CO[C@H]1CC[C@]2(CC1)Cc1ccc(OCCC(F)(F)F)cc1[C@@]21N=C(C)C(N)=N1 (single isomer, unassigned; isomer 1) [11, isomer 1] |  |  | 0.7 |  |
| CO[C@H]1CC[C@]2(CC1)Cc1ccc(OCC(C)(F)F)cc1C21N=C(C)C(N)=N1 (stereo partly drawn) [Example 3, (1r,4r)-6′-(2,2-Difluoropropoxy)-4-methoxy-5″-methyl-3′H-dispiro[cyclohexane-1,2′-indene-1′,2″-imidazol]-4″-amine] | 2.4 |  |  | IC50 [3]: 6.7 nM |
| CO[C@H]1CC[C@]2(CC1)Cc1ccc(OCC(C)F)cc1C21N=C(C)C(N)=N1 (stereo partly drawn) [Example 14, (1r,4r)-6′-(2-Fluoropropoxy)-4-methoxy-5″-methyl-3′H-dispiro[cyclohexane-1,2′-indene-1′,2″-imidazol]-4″-amine] | 2.5 |  |  | IC50 [3]: 6.7 nM |
| CO[C@H]1CC[C@]2(CC1)Cc1ccc(C#CC3CCC3)cc1C21N=C(C)C(N)=N1 (mixture of isomers) [Example 6, (1r,4r)-6′-(Cyclobutylethynyl)-4-methoxy-5″-methyl-3′H-dispiro[cyclohexane-1,2′-indene-1′,2″-imidazol]-4″-amine] | 2.1 |  |  |  |
| CC1=N[C@]2(N=C1N)c1cc(-c3cc(Cl)cc(C#N)c3)ccc1C[C@]21CC[C@@H](O)CC1 (single isomer, unassigned; isomer 1) [15, isomer 1] |  |  | 1.6 | IC50 [3, 4]: 3.2 nM |
| CC[C@@H](C)Oc1ccc2c(c1)C1(N=C(C)C(N)=N1)[C@]1(CC[C@H](OC)CC1)C2 (stereo partly drawn) [Example 18, (1r,4r)-6′-[(28)-Butan-2-yloxy]-4-methoxy-5″-methyl-3′H-dispiro[cyclohexane-1,2′-indene-1′,2″-imidazol]-4″-amine] | 16 |  |  |  |
| CC1=N[C@@]2(N=C1N)c1cc(OCC(C)C)ccc1C[C@]21CC[C@@H](O)CC1 (single isomer, unassigned; isomer 1) [2, isomer 1] |  | 13 |  |  |
